# Values of other authors as cited in US20250288650A1, “Therapeutic Regimens and Methods for Reducing Body Weight and/or Serum Lipids using a GLP-1R and GCGR Agonist” (Spitfire Pharma LLC, priority 2024, published 2025).
# Assays:
# [1] = over 26 weeks of administration
# [2] = 6 weeks
smiles,measurement,setting,value
CCCCCCCCCCCCCCCC(=O)N[C@@H](CCC(=O)NCCCC[C@H](NC(=O)[C@H](CC(=O)O)NC(=O)[C@H](CO)NC(=O)[C@@H](NC(=O)[C@H](Cc1ccccc1)NC(=O)[C@@H](NC(=O)CNC(=O)[C@H](CCC(N)=O)NC(=O)[C@H](CO)NC(=O)[C@@H](N)Cc1c[nH]cn1)[C@@H](C)O)[C@@H](C)O)C(=O)N[C@@H](CO)C(=O)N[C@@H](CCC(=O)O)C(=O)N[C@@H](Cc1ccc(O)cc1)C(=O)N[C@@H](CC(C)C)C(=O)N[C@@H](CC(=O)O)C(=O)N[C@@H](CO)C(=O)N[C@@H](CCC(=O)O)C(=O)N[C@@H](CCCNC(=N)N)C(=O)N[C@@H](C)C(=O)N[C@@H](CCCNC(=N)N)C(=O)N[C@@H](CC(=O)O)C(=O)N[C@@H](Cc1ccccc1)C(=O)N[C@H](C(=O)N[C@@H](C)C(=O)N[C@@H](Cc1c[nH]c2ccccc12)C(=O)N[C@@H](CC(C)C)C(=O)N[C@@H](CCC(=O)O)C(=O)N[C@@H](C)C(=O)NCC(=O)NCC(=O)O)C(C)C)C(=O)O [cotadutide],degree of weight loss,[1],5.4%
same,reduction in liver fat content,[2],39%
